Assay results: article PMC9505067, “Synthesis of Hydantoin Androgen Receptor Antagonists and Study on Their Antagonistic Activity” (Molecules, 2022)
Where two headings read alike, the source gives them in different places.

Key:
[1] = biological target: T1, androgen receptor (AR) (Homo sapiens, UniProt P10275); experiment: AR antagonist luciferase gene reporter assay (AR plasmid pSVAR0 + MMTV-Luc, DHT at EC80)
T1 sequence (P10275 1-920): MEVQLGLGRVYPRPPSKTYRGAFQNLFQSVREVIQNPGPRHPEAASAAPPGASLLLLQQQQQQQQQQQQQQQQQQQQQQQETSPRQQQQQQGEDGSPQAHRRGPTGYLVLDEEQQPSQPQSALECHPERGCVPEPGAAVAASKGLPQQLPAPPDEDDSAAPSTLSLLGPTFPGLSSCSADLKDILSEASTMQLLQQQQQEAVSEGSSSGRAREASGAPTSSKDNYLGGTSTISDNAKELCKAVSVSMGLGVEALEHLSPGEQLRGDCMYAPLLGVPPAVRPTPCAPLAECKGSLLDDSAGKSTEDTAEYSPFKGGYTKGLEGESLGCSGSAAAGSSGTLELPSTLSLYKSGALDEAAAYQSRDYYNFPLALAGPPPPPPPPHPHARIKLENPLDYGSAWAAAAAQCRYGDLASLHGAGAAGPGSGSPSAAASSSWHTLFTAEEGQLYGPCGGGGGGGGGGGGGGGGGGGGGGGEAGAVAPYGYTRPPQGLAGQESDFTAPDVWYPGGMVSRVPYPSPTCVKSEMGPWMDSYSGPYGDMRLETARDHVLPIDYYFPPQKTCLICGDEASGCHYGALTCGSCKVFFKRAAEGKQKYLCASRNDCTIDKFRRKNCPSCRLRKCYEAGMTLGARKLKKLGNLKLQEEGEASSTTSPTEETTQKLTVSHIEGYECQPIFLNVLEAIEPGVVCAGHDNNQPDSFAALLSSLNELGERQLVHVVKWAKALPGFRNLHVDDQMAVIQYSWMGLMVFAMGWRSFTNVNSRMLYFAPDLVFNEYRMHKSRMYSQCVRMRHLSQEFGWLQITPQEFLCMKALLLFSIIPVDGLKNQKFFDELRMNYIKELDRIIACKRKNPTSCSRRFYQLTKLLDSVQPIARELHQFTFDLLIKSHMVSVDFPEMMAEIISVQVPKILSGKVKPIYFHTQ

[2] = test system: LNCaP cells; experiment: Anti-proliferative activity assay in LNCaP cells (CCK-8); assay type: cell-based; conditions: 72 h treatment, normalized relative to DMSO-control treated cells, means ± SD, concentration not given
Experimental: We performed experiments accordingly to detect the anti-proliferative effect of compounds using the prostate cancer LNCaP cell line. The measurement of proliferative activity was performed after treatment with a concentration range of each compound for 72 h.
LNCaP cells were cultured in RPMI-1640 medium (Life Technologies, Carlsbad, CA, USA) supplemented with 10% (v/v) fetal bovine serum, 1% sodium pyruvate and 1% L-Glutamine. The cells were seeded into 96-well plates at a density of 8 × 10^4 cells per well. After 24 h incubation, the culture medium was removed and the cells were cultivated in the medium supplemented with 2% (v/v) fetal bovine serum for 2 days and then treated with different concentrations of test compounds for 3 days. Cell viability was measured with the CCK-8 kit (Dojindo).

[3] = Antagonist Activity in CV-1 IC50, luciferase reporter in AR-transfected cells, DHT at EC80, 24 h incubation, means ± SD of three independent experiments
[4] = luciferase reporter in AR-transfected cells, DHT at EC80, 24 h, enzalutamide = 100, means ± SD of three independent experiments

SMILES | Antagonist Activity in CV-1 Efficacy [1] [%] | IC50 [1, 3] [nM] | Proliferative/Anti-Proliferative Activity in LNCAP [2] [%] | melting point [°C] | IC50 [1] [nM] | Antagonist Activity in CV-1 Efficacy [1, 4] [%]
CC1(CO)C(=O)N(c2ccc(C#N)c(C(F)(F)F)c2)C(=S)N1c1ccccc1 (stereo not drawn) [6a, 4-(4-(hydroxymethyl)-4-methyl-5-oxo-3-phenyl-2-thioxoimidazolidin-1-yl)-2-(trifluoromethyl)benzonitrile] | 101 ± 6.7 | 46.8 ± 6.2 | 149.3 ± 14.2 | 216 to 219 |  | 
CC1(CO)C(=O)N(c2ccc(C#N)c(C(F)(F)F)c2)C(=S)N1c1ccc(F)cc1 (stereo not drawn) [6c, 4-(3-(4-fluorophenyl)-4-(hydroxymethyl)-4-methyl-5-oxo-2-thioxoimidazolidin-1-yl)-2-(trifluoromethyl)benzonitrile] | 91 ± 5.9 | 46.2 ± 4.1 | 118.7 ± 22.1 | 231 to 233 |  | 
CC1(CO)C(=O)N(c2cnc(C#N)c(C(F)(F)F)c2)C(=S)N1c1ccccc1 (stereo not drawn) [19a, 5-(4-(hydroxymethyl)-4-methyl-5-oxo-3-phenyl-2-thioxoimidazolidin-1-yl)-3-(trifluoromethyl)picolinonitrile] | 61.27 ± 12.44 | 18.4 ± 8.65 | 122.8 ± 16.8 | 203 to 205 |  | 
CC1(CO)C(=O)N(c2cnc(C#N)c(C(F)(F)F)c2)C(=S)N1c1ccc(F)cc1 (stereo not drawn) [19b, 5-(3-(4-fluorophenyl)-4-(hydroxymethyl)-4-methyl-5-oxo-2-thioxoimidazolidin-1-yl)-3-(trifluoromethyl)picolinonitrile] |  |  | 65.7 ± 20.5 | 181 to 183 | 32.5 ± 22.1 | 75.55 ± 11.87
CN1CCC(Oc2ccc(N3C(=S)N(c4cnc(C#N)c(C(F)(F)F)c4)C(=O)C3(C)CO)cc2)CC1 (stereo not drawn) [19d, 5-(4-(hydroxymethyl)-4-methyl-3-(4-((1-methylpiperidin-4-yl)oxy)phenyl)-5-oxo-2-thioxoimidazolidin-1-yl)-3-(trifluoromethyl)picolinonitrile] |  |  |  | 119 to 121 | 139 ± 28.1 | 81.64 ± 5.92
C[C@]12CCC(=O)C[C@@H]1CC[C@@H]1[C@@H]2CC[C@]2(C)[C@@H](O)CC[C@@H]12 [DHT, reference compound] |  |  | 186.7 ± 5.6 |  |  | 
CNC(=O)c1ccc(N2C(=S)N(c3ccc(C#N)c(C(F)(F)F)c3)C(=O)C2(C)C)cc1F [Enzalutamide, reference compound] |  |  | 71.4 ± 7.8 |  |  | 
CC(=O)Nc1ccc(N2C(=S)N(c3ccc(C#N)c(C(F)(F)F)c3)C(=O)C2(C)CO)cc1 (stereo not drawn) [compound 9, N-(4-(3-(4-cyano-3-(trifluoromethyl)phenyl)-5-(hydroxymethyl)-5-methyl-4-oxo-2-thioxoimidazolidin-1-yl)phenyl)acetamide] | 95 ± 3.1 | 939 ± 124 |  | 126 to 128 |  | 
CC(=O)Nc1ccc(N2C(=O)N(c3ccc(C#N)c(C(F)(F)F)c3)C(=O)C2(C)CO)cc1 (stereo not drawn) [compound 10, N-(4-(3-(4-cyano-3-(trifluoromethyl)phenyl)-5-(hydroxymethyl)-5-methyl-2,4-dioxoimidazolidin-1-yl)phenyl)acetamide] | 84 ± 8.6 | > 5000 |  | 124 to 126 |  | 
